The values below come from patent publication US10174053B2, “2 substituted cephem compounds” (Glaxo Group Limited, priority 2012, dated 2019).

≈ marks a conversion by molar mass, not a printed value.

Common to all, as to assay: In vitro antimicrobial activity, MIC by broth microdilution (CLSI)
Common to all, as to format: cell-based

For one test, the system named is K. pneumoniae SR01358. As to conditions: KPC-2, ESBL and KPC-type carbapenemase producing strain, 5×10^5 cfu/mL, cation-adjusted Iso-Sensitest broth containing human Apo-transferrin; for MIC: Klebsiella pneumoniae, SR01358, read-out: Minimum Inhibitory Concentration (MIC) K. pneumoniae SR01358. As for the experimental part:
(§1) Compound (I) of the invention was evaluated for in vitro antimicrobial activity thereof.
(§2) Measurement of Minimum Inhibitory Concentration (MIC: μg/mL) was conducted according to CLSI (Clinical and Laboratory Standards Institute) method, and the amount of bacteria for inoculation was 5×10^5 cfu/mL, and cation-adjusted Iso-Sensitest broth containing human Apo-transferrin was used as a test medium, and the experiment was conducted using broth microdilution method. The bacteria used are listed below.

The test system of the next test is E. Coli JMI1890. The following applies: PER-1, TEM-1, ESBL producing strain, 5×10^5 cfu/mL, cation-adjusted Iso-Sensitest broth containing human Apo-transferrin; for MIC: Escherichia coli, read-out: Minimum Inhibitory Concentration (MIC) E. Coli JMI:1890. As for the experimental part: as §1, §2
Another test relates to A. baumannii JMI7. The following applies: PER-1, OXA-23, 51, ESBL and OXA-type carbapenemase producing strain, 5×10^5 cfu/mL, cation-adjusted Iso-Sensitest broth containing human Apo-transferrin; for MIC: Acinetobacter baumannii, JMI7, read-out: Minimum Inhibitory Concentration (MIC) A. baumannii JMI:7. As for the experimental part:
as §1, §2

Another test has as its system A. baumannii JMI2346. The following applies: OXA-51, TEM, ESBL and OXA-type carbapenemase producing strain, 5×10^5 cfu/mL, cation-adjusted Iso-Sensitest broth containing human Apo-transferrin; for MIC: Acinetobacter baumannii, JMI2346, read-out: Minimum Inhibitory Concentration (MIC) A. baumannii JMI:2346. How it is done:
as §1, §2

Consider `C[C@@H]1S[C@@H]2[C@H](NC(=O)/C(=N\OC(C)(C)C(=O)O)c3csc(N)n3)C(=O)N2C(C(=O)[O-])=C1C[N+]12CCC(CC1)N(C(=O)c1cn(C)c3cc(O)c(O)c(Cl)c3c1=O)CC2` [Compound I-160, (4S,6R,7R)-7-((Z)-2-(2-aminothiazol-4-yl)-2-(((2-carboxypropan-2-yl)oxy)imino)acetamido)-3-((4-(5-chloro-6,7-dihydroxy-1-methyl-4-oxo-1,4-dihydroquinoline-3-carbonyl)-1,4-diazabicyclo[3.2.2]nonan-1-ium-1-yl)methyl)-4-methyl-8-oxo-5-thia-1-azabicyclo[4.2.0]oct-2-ene-2-carboxylate], for which the MIC in the test with K. pneumoniae SR01358 was 0.063 µg/mL (≈ 0.0733 µM); in the test on E. Coli JMI1890, no more than 0.031 µg/mL; in the test with A. baumannii JMI7, 0.25 µg/mL (≈ 0.291 µM); in the test on A. baumannii JMI2346, 0.5 µg/mL (≈ 0.582 µM).
As for `C[C@@H]1S[C@@H]2[C@H](NC(=O)/C(=N\OC(C)(C)C(=O)[O-])c3csc(N)n3)C(=O)N2C(C(=O)O)=C1C[N+]12CCC(CNN3C(=O)c4cc(O)c(O)cc4C3=O)(CC1)CC2` [Compound I-123], the MIC in the test on K. pneumoniae SR01358 was no more than 0.031 µg/mL; in the test on E. Coli JMI1890, 0.125 µg/mL (≈ 0.156 µM); with A. baumannii JMI7 it was 0.5 µg/mL (≈ 0.626 µM); in the test on A. baumannii JMI2346 it was 4 µg/mL (≈ 5.01 µM).
As to `C[C@@H]1S[C@@H]2[C@H](NC(=O)/C(=N\OC(C)(C)C(=O)[O-])c3csc(N)n3)C(=O)N2C(C(=O)[O-])=C1C[N+]12CCC(CC1)N(C(=O)c1cc(O)c(O)c(Cl)c1)CC2.[Na+]` [Compound I-65], the MIC is no more than 0.031 µg/mL in the test with K. pneumoniae SR01358, 0.125 µg/mL in the test on E. Coli JMI1890, 0.5 µg/mL with A. baumannii JMI7 and 2 µg/mL in the test with A. baumannii JMI2346.
Take `C[C@H]1S[C@@H]2[C@H](NC(=O)/C(=N\OC(C)(C)C(=O)[O-])c3csc(N)n3)C(=O)N2C(C(=O)O)=C1C[N+]1(CCNC(=O)c2ccc(O)c(O)c2Cl)CCCC1` [Compound I-53]: the MIC in the test on K. pneumoniae SR01358 is 0.25 µg/mL (≈ 0.326 µM); in the test with E. Coli JMI1890, 0.25 µg/mL (≈ 0.326 µM); in the test with A. baumannii JMI7, 2 µg/mL (≈ 2.61 µM); in the test with A. baumannii JMI2346, 4 µg/mL (≈ 5.22 µM).
For `C[C@@H]1S[C@@H]2[C@H](NC(=O)/C(=N\OC(C)(C)C(=O)[O-])c3csc(N)n3)C(=O)N2C(C(=O)O)=C1C[N+]1(CCNN2C(=O)c3cc(O)c(O)cc3C2=O)CCCC1` [Compound I-26], the MIC in the test with K. pneumoniae SR01358 was no more than 0.031 µg/mL; in the test with E. Coli JMI1890 it was 0.5 µg/mL (≈ 0.647 µM); in the test on A. baumannii JMI7, 0.5 µg/mL (≈ 0.647 µM); in the test with A. baumannii JMI2346, 4 µg/mL (≈ 5.18 µM).
`C[C@@H]1S[C@@H]2[C@H](NC(=O)/C(=N\OC(C)(C)C(=O)[O-])c3csc(N)n3)C(=O)N2C(C(=O)[O-])=C1C[N+]1(C)[C@@H]2CC[C@H]1C[C@@H](N1C(=O)c3cc(O)c(O)cc3C1=O)C2.[Na+]` (stereo partly shown) [Compound I-77]: the MIC was no more than 0.031 µg/mL in the test with K. pneumoniae SR01358, 0.25 µg/mL in the test with E. Coli JMI1890, 0.5 µg/mL with A. baumannii JMI7 and 1 µg/mL with A. baumannii JMI2346.
For `C[C@@H]1S[C@@H]2[C@H](NC(=O)/C(=N\OC(C)(C)C(=O)O)c3csc(N)n3)C(=O)N2C(C(=O)[O-])=C1C[N+]12CCC(Cn3ncc4cc(O)c(O)cc4c3=O)(CC1)CC2` [Compound I-124], the MIC with K. pneumoniae SR01358 was no more than 0.031 µg/mL; with E. Coli JMI1890, 0.125 µg/mL (≈ 0.16 µM); in the test on A. baumannii JMI7 it was 0.5 µg/mL (≈ 0.639 µM); in the test on A. baumannii JMI2346, 2 µg/mL (≈ 2.55 µM).
For `C[C@@H]1S[C@@H]2[C@H](NC(=O)/C(=N\OC(C)(C)C(=O)O)c3csc(N)n3)C(=O)N2C(C(=O)[O-])=C1C[N+]12CCC(Cn3cnc4cc(O)c(O)cc4c3=O)(CC1)CC2` [Compound I-150, (4S,6R,7R)-7-((Z)-2-(2-aminothiazol-4-yl)-2-(((2-carboxypropan-2-yl)oxy)imino)acetamido)-3-((4-((6,7-dihydroxy-4-oxoquinazolin-3(4H)-yl)methyl)quinuclidin-1-ium-1-yl)methyl)-4-methyl-8-oxo-5-thia-1-azabicyclo[4.2.0]oct-2-ene-2-carboxylate], in that order: no more than 0.031 µg/mL, 2 µg/mL (≈ 2.55 µM), 0.5 µg/mL (≈ 0.639 µM) and 2 µg/mL (≈ 2.55 µM).
On the same counts, the results for `C[C@@H]1S[C@@H]2[C@H](NC(=O)/C(=N\OC(C)(C)C(=O)[O-])c3csc(N)n3)C(=O)N2C(C(=O)O)=C1C[N+]12CCC(CNC(=O)c3cc(O)c(O)c(Cl)c3)(CC1)C2` [Compound I-142] are no more than 0.031 µg/mL, 0.25 µg/mL (≈ 0.321 µM), 0.5 µg/mL (≈ 0.642 µM) and 2 µg/mL (≈ 2.57 µM).
On the same counts, the results for `C[C@@H]1S[C@@H]2[C@H](NC(=O)/C(=N\OC(C)(C)C(=O)[O-])c3csc(N)n3)C(=O)N2C(C(=O)[O-])=C1C[N+]12CCC(CNC(=O)c3cc(O)c(O)c(F)c3)(CC1)C2.[Na+]` [Compound I-117] are 0.25 µg/mL, no more than 0.031 µg/mL, 0.5 µg/mL and 1 µg/mL.
As for `C[C@@H]1S[C@@H]2[C@H](NC(=O)/C(=N\OC(C)(C)C(=O)[O-])c3csc(N)n3)C(=O)N2C(C(=O)[O-])=C1C[N+]12CCC(CC1)N(C(=O)c1c[nH]c3cc(O)c(O)cc3c1=O)CC2.[Na+]` [Compound I-174, (4S,6R,7R)-7-((Z)-2-(2-aminothiazol-4-yl)-2-(((2-carboxypropan-2-yl)oxy)imino)acetamido)-3-((4-(6,7-dihydroxy-4-oxo-1,4-dihydroquinoline-3-carbonyl)-1,4-diazabicyclo[3.2.2]nonan-1-ium-1-yl)methyl)-4-methyl-8-oxo-5-thia-1-azabicyclo[4.2.0]oct-2-ene-2-carboxylate, Sodium salt], the MIC was no more than 0.031 µg/mL in the test on K. pneumoniae SR01358, 4 µg/mL with E. Coli JMI1890, 0.25 µg/mL in the test with A. baumannii JMI7 and 1 µg/mL in the test on A. baumannii JMI2346.
Take `C[C@@H]1S[C@@H]2[C@H](NC(=O)/C(=N\OC(C)(C)C(=O)[O-])c3csc(N)n3)C(=O)N2C(C(=O)[O-])=C1C[N+]12CCC(CC1)N(C(=O)C(=O)c1cc(O)c(O)c(Cl)c1)CC2.[Na+]` [Compound I-16]: the MIC was no more than 0.031 µg/mL with K. pneumoniae SR01358, 0.5 µg/mL in the test with E. Coli JMI1890, 1 µg/mL with A. baumannii JMI7 and 8 µg/mL with A. baumannii JMI2346.
For `C[C@@H]1S[C@@H]2[C@H](NC(=O)/C(=N\OC(C)(C)C(=O)[O-])c3csc(N)n3)C(=O)N2C(C(=O)[O-])=C1C[N+]12CCC(CC1)N(C(=O)C(=O)c1ccc(O)c(O)c1Cl)CC2.[Na+]` [Compound I-75], in that order: no more than 0.031 µg/mL, 0.125 µg/mL, 0.25 µg/mL and 4 µg/mL.
For `CO/N=C(\C(=O)NCC12CC[N+](CC3=C(COO)N4C(=O)[C@@H](NC(=O)/C(=N\OC(C)(C)C(=O)[O-])c5csc(N)n5)[C@H]4S[C@H]3C)(CC1)CC2)c1cc(O)c(O)c(F)c1` [Compound I-132], the “Minimum Inhibitory Concentration (MIC) K. pneumoniae SR01358” value in the test with K. pneumoniae SR01358 was no more than 0.031 µg/mL. Further, the “Minimum Inhibitory Concentration (MIC) E. Coli JMI:1890” value in the test with E. Coli JMI1890 worked out at 0.25 µg/mL. Also, the “Minimum Inhibitory Concentration (MIC) A. baumannii JMI:7” value in the test with A. baumannii JMI7 stood at 1 µg/mL. In the test with A. baumannii JMI2346, the “Minimum Inhibitory Concentration (MIC) A. baumannii JMI:2346” value stood at 4 µg/mL.
Take `C[C@@H]1S[C@@H]2[C@H](NC(=O)/C(=N\OC(C)(C)C(=O)[O-])c3csc(N)n3)C(=O)N2C(C(=O)[O-])=C1C[N+]12CCC[C@H]1CN(C(=O)C(=O)c1ccc(O)c(O)c1Cl)CC2.[Na+]` (stereo partly shown) [Compound I-76]: the MIC with K. pneumoniae SR01358 is no more than 0.031 µg/mL; with E. Coli JMI1890, 0.25 µg/mL; with A. baumannii JMI7 it was 0.5 µg/mL; in the test on A. baumannii JMI2346, 4 µg/mL.
Consider `C[C@@H]1S[C@@H]2[C@H](NC(=O)/C(=N\OC(C)(C)C(=O)[O-])c3csc(N)n3)C(=O)N2C(C(=O)O)=C1C[N+]1(CCON2C(=O)c3cc(O)c(O)cc3C2=O)CCCC1` [Compound I-27], for which the MIC in the test with K. pneumoniae SR01358 is no more than 0.031 µg/mL; with E. Coli JMI1890 it was 0.5 µg/mL (≈ 0.646 µM); in the test on A. baumannii JMI7, 0.5 µg/mL (≈ 0.646 µM); in the test on A. baumannii JMI2346 it was 4 µg/mL (≈ 5.17 µM).
